# Experimental data: patent publication US20050175545A1, “Formulation for inhalation comprising a glucocorticoid and a beta 2-adrenoreceptor agonist” (priority 2002, published 2005)
# Columns and labels:
# lung eosinophilia = experiment: ovalbumin sensitised Brown Norway rat eosinophilia model; assay type: in vivo; conditions: intra-tracheal suspension in saline 30 min prior to ovalbumin challenge
# Procedure: Pharmacological activity in vivo was assessed in an ovalbumin sensitised Brown Norway rat eosinophilia model. This model is designed to mimic allergen induced lung eosinophilia, a major component of lung inflammation in asthma.
# [1] = Pharmacokinetics after intravenous and oral dosing in rats; conditions: in vivo data in the rat
# rat hepatocytes = experiment: In vitro metabolism in rat hepatocytes; assay type: in vitro ADME; conditions: 17-β carboxylic acid (X) only significant metabolite
# [2] = Pharmacokinetics after intra-tracheal dry powder dosing in the pig; assay type: in vivo; conditions: intra-tracheal 1 mg; lower limits of quantitation 10 (Example 1) and 20 pg/mL (fluticasone propionate)
# Procedure: Serial blood samples were taken for up to 8h following dosing.
# [3] = Pharmacokinetics after intravenous administration in the anaesthetised pig; assay type: in vivo; conditions: for clearance (comparison, in words): intravenous 0.1 mg/kg; for pharmacokinetic parameters (comparison, in words): intravenous mixture of the two compounds at 0.1 mg/kg
# Description: The clearance of these two glucocorticoids is similar is this experimental pig model.
# human hepatocytes = experiment: In vitro metabolism in human hepatocytes; assay type: in vitro ADME; conditions: 17-β carboxylic acid (X) only significant metabolite
# NFκB = NFκB firefly luciferase reporter stimulated with TNFα, transrepression; assay type: cell-based; conditions: Homo sapiens, A549, read-out: Transrepression (NFκB) ED50 (nM)
# Description: The glucocorticoid receptor (GR) can function in at least two distinct mechanisms, by upregulating gene expression through the direct binding of GR to specific sequences in gene promoters, and by downregulating gene expression that is being driven by other transcription factors (such as NFκB or AP-1) through their direct interaction with GR.
# The first cell line contains the firefly luciferase reporter gene under the control of a synthetic promoter that specifically responds to activation of the transcription factor NFκB when stimulated with TNFα. The second cell line contains the renilla luciferase reporter gene under the control of a synthetic promotor that comprises 3 copies of the consensus glucocorticoid response element, and which responds to direct stimulation by glucocorticoids. Simultaneous measurement of transactivation and transrepression was conducted by mixing the two cell lines in a 1:1 ratio in 96 well plate (40,000 cells per well) and growing overnight at 37° C. Test compounds were dissolved in DMSO, and added to the cells at a final DMSO concentration of 0.7%. After incubation for 1 h 0.5 ng/ml TNFα (R&D Systems) was added and after a further 15 hours at 37° C., the levels of firefly and renilla luciferase were measured using the Packard Firelite kit following the manufacturers' directions. Dose response curves were constructed from which EC50 values were determined.
smiles,measurement,setting,value
"C[C@@H]1CC2C3C[C@H](F)C4=CC(=O)C=C[C@]4(C)[C@@]3(F)[C@@H](O)C[C@]2(C)[C@@]1(OC(=O)c1ccco1)C(=O)SCF (stereo partly drawn) [Example 1, 6α,9α-Difluoro-17α-[(2-furanylcarbonyl)oxy]-11β-hydroxy-16α-methyl-3-oxo-androsta-1,4-diene-17β-carbothioic acid S-fluoromethyl ester]","inhibition of lung eosinophilia (dose relation, in words)",lung eosinophilia,dose dependant inhibition
same,plasma clearance (in words),[1],approaching hepatic blood flow
same,manner of metabolism,rat hepatocytes,metabolised in an identical manner to fluticasone propionate
same,time after dosing up to which quantifiable in plasma,[2],up to 2 hours
same,"clearance (comparison, in words)",[3],similar
same,"pharmacokinetic parameters (comparison, in words)",[3],the same
same,manner of metabolism,human hepatocytes,metabolised in an identical manner to fluticasone propionate
"CC1CC2C3CC(F)C4=CC(=O)C=CC4(C)C3(F)C(O)CC2(C)C1(OC(=O)c1ccsc1)C(=O)SCF (stereo not drawn) [Example 4, 6α,9α-Difluoro-11β-hydroxy-16α-methyl-3-oxo-17α-[(3-thienylcarbonyl)oxy]-androsta-1,4-diene-17β-carbothioic acid S-fluoromethyl ester]",plasma clearance (in words),[1],approaching hepatic blood flow
"Cc1ccoc1C(=O)OC1(C(=O)SCF)C(C)CC2C3CC(F)C4=CC(=O)C=CC4(C)C3(F)C(O)CC21C (stereo not drawn) [Example 19, 6α,9α-Difluoro-11β-hydroxy-16α-methyl-17α-[(3-methylfuran-2-carbonyl)oxy]-3-oxo-androsta-1,4-diene-17β-carbothioic acid S-fluoromethyl ester]",plasma clearance (in words),[1],approaching hepatic blood flow
"Cc1cc(C(=O)OC2(C(=O)SCF)C(C)CC3C4CC(F)C5=CC(=O)C=CC5(C)C4(F)C(O)CC32C)no1 (stereo not drawn) [Example 24, 6α,9α-Difluoro-11β-hydroxy-16α-methyl-17α-[(5-methylisoxazole-3-carbonyl)oxy]-3-oxo-androsta-1,4-diene-17β-carbothioic acid S-fluoromethyl ester]",plasma clearance (in words),[1],approaching hepatic blood flow
"Cc1cc(C(=O)OC2(C(=O)SCF)C(C)CC3C4CC(F)C5=CC(=O)C=CC5(C)C4(F)C(O)CC32C)on1 (stereo not drawn) [Example 25, 6α,9α-Difluoro-11β-hydroxy-16α-methyl-17α-[(3-methylisoxazole-5-carbonyl)oxy]-3-oxo-androsta-1,4-diene-17β-carbothioic acid S-fluoromethyl ester]",plasma clearance (in words),[1],approaching hepatic blood flow
"CC1CC2C3CC(F)C4=CC(=O)C=CC4(C)C3(F)C(O)CC2(C)C1(OC(=O)c1ccon1)C(=O)SCF (stereo not drawn) [Example 28, 6α,9α-Difluoro-11β-hydroxy-17α-[(isoxazole-3-carbonyl)oxy]-16α-methyl-3-oxo-androsta-1,4-diene-17β-carbothloic acid S-fluoromethyl ester]",plasma clearance (in words),[1],approaching hepatic blood flow
"CCC(=O)O[C@]1(C(=O)SCF)[C@H](C)C[C@H]2[C@@H]3C[C@H](F)C4=CC(=O)C=C[C@]4(C)[C@@]3(F)[C@@H](O)C[C@@]21C [Fluticasone propionate, 6α,9α-Difluoro-17α-(1-oxopropoxy)-11β-hydroxy-16α-methyl-3-oxo-androsta-1,4-diene-17β-carbothioic acid S-fluoromethyl ester, reference compound]",time after dosing up to which quantifiable in plasma,[2],up to 8 hours
same,"clearance (comparison, in words)",[3],similar
same,"pharmacokinetic parameters (comparison, in words)",[3],the same
C[C@@H]1C[C@H]2[C@@H]3C[C@H](F)C4=CC(=O)C=C[C@]4(C)[C@@]3(F)[C@@H](O)C[C@]2(C)[C@@]1(OC(=O)c1ccco1)C(=O)O [Metabolite (X)],EC50,NFκB,> 1000 nM
